US6338963B1, “Use of carbon monoxide dependent guanylyl cyclase modifiers to stimulate neuritogenesis” (NeoTherapeutics, Inc., priority 1994, dated 2002)
Marks after values point to notes of the source that are not given here.

What was measured:
[1] = test system: cGMP levels in PC12 cells; experiment: cGMP levels in PC12 cells (radioimmunoassay); type: cell-based, rat; details: NGF-primed PC12 cells
Procedure: Initially, PC-12 cells were primed with 40 ng/ml NGF for 3 days in low serum medium (1.5% horse serum+5% fetal calf serum). Cells were seeded onto assay plates in low serum medium containing 40 ng/ml NGF and incubated for 1 hour. The medium was changed to low arginine medium (80 μM) with no serum and NGF and papaverine ([…]) where indicated. Test compounds were added for the indicated time and the reaction was stopped by adding 5% TCA containing 10,000 dpm of ^3H-cGMP. cGMP was assayed by the radioimmunoassay method of Maurice (Mol. Pharmacol. 37: 671-681, 1990). TCA was purified by adding powdered charcoal (5 g) and filtering the mixture through Whatman #1 paper. This removed contaminants in the TCA that otherwise interfere with the radioimmunoassay (RIA) of cGMP.
It was necessary to purify the cGMP from cAMP and other contaminants before radioimmunoassay since these other materials can interfere with the assay. Briefly, the TCA solution was applied to Dowex columns (50W-8X, 200-400 mesh) and eluted. A neutral alumina column was then placed under each Dowex column. The cGMP was eluted from the Dowex columns into neutral alumina columns by adding 4 mL of 0.05 M HCl to each Dowex column. The neutral alumina columns were then sequentially rinsed with 2 ml of HCl, 4 mL water and finally with 0.2 M sodium acetate (pH 6.2). The cGMP collected for the RIA eluted in 1 ML of sodium acetate with a recovery between 50-65%. The cGMP was assayed using a Dupont RIA kit.

[2] = test system: cultured neurons from rat cerebral cortex; experiment: NMDA-induced toxicity in cultured rat cortical neurons, astrocyte conditioned medium; type: cell-based
Procedure: In these experiments, cultured neurons were prepared from rat cerebral cortex. In these cultures the NMDA pulse (100 μM for 10 min) provoked about 80% neuronal death (measured by Trypan blue cell staining or LDH activity). Separately, cultured astrocytes were treated for 6 hours with AIT-082. Then, the medium containing the drug was replaced with fresh medium without the drug and the astrocyte cultures were maintained in this medium for the next 24 hours. This medium represented the CM and was added to neurons soon after the toxic pulse with NMDA. The addition of CM partly counteracted the toxic effects caused by NMDA, reducing the neuronal damage by about 50%. If the medium was boiled for 20 min at 100° C. prior to addition to NMDA-damaged neurons, it completely lost the protective activity. […] To verify whether the neuroprotection caused by AIT-082 was ascribable to the production of TGFβ2 or NGF, antibodies to TGFβ2 or to NGF (100 ng/ml) were added together with CM.
Conversely, when DPCPX (100 nm) was added to astrocyte cultures together with AIT-082, the neuroprotective effect of the resulting CM deriving from the culture of the astrocytes with AIT-082 was reduced by only 20%, as compared to the neuroprotective effect of CM derived from astrocytes exposed to AIT-082 alone (assumed as equal to 100%).

NGF = NGF release from rat cultured astrocytes (ELISA); type: cell-based; details: for effect of inhibitor on AIT-082-induced accumulation of NGF: 100 nm wortmannin, 10 μM PD098,059 or 500 ng/ml CHX added 30 min before and kept 24 hours with 100 μM AIT-082
Procedure: The dose response for AIT-082 and guanosine on nerve growth factor and S100β protein release from rat culture astrocytes is shown in FIG. 30. NGF was assayed by a double-site ELISA, using a monoclonal anti-NGF antibody, coupled or not to β-galactosidase according to the method of I. D. Laviada et al., “Phosphatidylcholine-Phospholipase C Mediates the Induction of Nerve Growth Factor in Cultured Glial Cells,” FEBS Lett. 364: 301-304 (1995).
(§1) The NGF and S100β protein were measured by removing the cultured medium for the ELISA assays at each indicated time point.
(§2) NGF and TGFβ2 levels were assayed in the culture medium of the astrocytes by specific ELISA assays using kits from Roche (Germany) and Promega (USA) respectively. NGF basal levels were 56.3±3.2 pg/ml. TGFβ2 levels were 9.1±0.06 pg/ml.
(§3) In FIG. 61, the dose-response curves of NGF and TGFβ2 release from rat cultured astrocytes as the result of exposure to AIT-082 are shown.

TGFβ2 = TGFβ2 release from rat cultured astrocytes (ELISA); type: cell-based; details: 100 nm wortmannin, 10 μM PD098,059 or 500 ng/ml CHX added 30 min before and kept 24 hours with 100 μM AIT-082
Procedure: as §2, §3

S100β protein = S100β protein release from rat cultured astrocytes (ELISA); type: cell-based; details: cycloheximide 0.5 μg/ml, AIT-082 100 μ
Procedure: The S100β protein was measured by using an ELISA as described in A. Aurell et al., “The S-100 Protein in Cerebrospinal Fluid: A Simple ELISA Method,” J.Neurol. Sci. 89: 157-164 (1989).
as §1

Swiss Webster mice [3] = experiment: Win-shift T-maze memory test, Swiss Webster mice; type: in vivo; details: 90-second inter-trial interval, PHY 0.125 mg/kg i.p.
Procedure: Male Swiss Webster mice six months (young adult) and eleven months (old) of age, obtained from the National Institute on Aging, were maintained in individual cages, on a […] light/dark cycle with continuous access to water. Food was limited so that the mice stabilized at 80% of free feeding weight. Mice were weighed and handled daily for one week. The win-shift model was run as described in the literature and consists of a T-maze in which the correct response alternates after each correct trial. The interval between trials is varied and allows for the determination of the longest period between trials that a subject can remember the correct response on the previous trial. This allows the measure of the duration of the memory trace. […] The reward goal box is alternated after each correct trial. Ten trials per mouse are run each day. […] The latency time to leave the start box is recorded as a measure of motivation, the running time (the time from leaving the start box to reaching the goal box) is recorded as a measure of performance, and the number of correct responses as a measure of memory.
The drugs used in this example are 4-((3-(1,6-dihydro-6-oxo-9-purin-9-yl)-1-oxopropyl)amino) benzoic acid (AIT-082), as an exemplary potassium salt, tacrine hydrochloride (tetrahydroaminoacridine, THA, Sigma Chemical Co., St. Louis, Mo.), and physostigmine, hemisulfate salt (PHY, Sigma Chemical Co., St. Louis, Mo.). The drugs were dissolved in saline and prepared fresh daily. All injections were made at a volume of 0.1 ml/10 grams body weight. When testing drug effects, intraperitoneal (i.p.) injections of AIT-082 or THA were made one hour prior to the start of testing. Due to its shorter duration of action, PHY was injected 30 minutes prior to testing. Control subjects receive a similar injection of saline (vehicle).
(§4) To determine the duration of the memory trace, subjects were administered drug or saline and 30 minutes (PHY) or 1 hour (AIT-082 or THA) later they were given a single reference run with the milk reward in both goal boxes. After the indicated inter-trial delay, subjects were returned to the start box and given the first test trial with the milk reward only in the goal box opposite to the one entered on the previous correct trial. The subjects were given 10 trials with the reward alternating only after correct responses.
To determine if tolerance to the biological effects of AIT-082 developed, drug or saline was administered daily for 18 days prior to the testing in the standard win-shift paradigm.

C57BL/6 mice [4] = experiment: Win-shift duration of memory trace, C57BL/6 mice; type: in vivo; details: for Correct (Mean score ± S.E.) / No. above chance/Total #: Physostigmine 0.125 mg/kg
Procedure: as §4
Previous work has established that normal adult Swiss Webster mice have a memory trace duration of 60 seconds in the win-shift paradigm which may be increased by the administration of AIT-082.

Swiss Webster mice [5] = experiment: Win-shift test, Swiss Webster mice with age-induced memory deficits; type: in vivo; details: PHY 0.125 mg/kg
Procedure: Twelve-month old male Swiss Webster mice were screened for performance in the win-shift foraging test. Subjects were tested at various time delays, beginning at 10 seconds and increasing the inter-trial time interval to 30, 60, 90 and 120 seconds.
Subjects with severe impairment could not remember the correct response at 10 seconds while subjects with mild deficit could remember the correct response with a 30 second inter-trial interval but not at 60 seconds. Subjects with a moderate deficit could remember the correct response with a 10 second inter-trial interval but not […] at 30 seconds. Thus, the win-shift model can detect age-induced impairments in working memory. As will be appreciated by those skilled in the art, this observation is important since it provides the ability to use age-matched subjects with varying degrees of impairment for evaluation of potential therapeutic agents.
Following the establishment of a baseline, six subjects in each of the three groups were treated with AIT-82 (30 mg/kg, one hour before testing) or physostigmine (0.125 mg/kg, 30 minutes before testing) using the win-shift foraging test. The results are presented in Table L directly below and graphically represented in FIG. 9.

C57BL/6 mice [6] = experiment: Win-shift test, C57BL/6 mice with age-induced memory deficits; type: in vivo; details: for subjects performing significantly above chance/total number of subjects: PHY 0.125 mg/kg
Procedure: Twelve-month old male C57BL/6 mice were screened for performance in the win-shift foraging test. Subjects were tested at various inter-trial time intervals. Subjects who could not perform to criteria (>60% correct) at 10 seconds delay were classified as having a severe deficit. Subjects who performed to criteria at 10 seconds but not at 30 seconds were classified as having a moderate degree of deficit and subjects who performed to criteria at 30 seconds but not at 60 seconds were classified as having mild deficit. As in Example 21, subjects in each group were treated with either AIT-082 or PHY to determine the extent to which the working memory trace was prolonged. The results are presented in Table M directly below and graphically represented in FIG. 10.

[7] = Moderate deficit, interval 30 sec
[8] = Moderate deficit, interval 60 sec
[9] = Severe deficit, interval <10 sec

## CNc1ccc2oc(C[C@H]3O[C@@]4(CC[C@H]3C)O[C@H]([C@H](C)C(=O)c3ccc[nH]3)[C@H](C)C[C@H]4C)nc2c1C(=O)O [A23187, reference compound]
[1]
  cGMP in PC12 cells: failed to elicit an increase in cGMP

## CCCn1c(=O)c2[nH]c(C3CCCC3)nc2n(CCC)c1=O [DPCPX, 8-cyclopentyl-1,3-dipropylxanthine]
[2]; DPCPX 100 nm added to astrocyte cultures together with AIT-082
  reduction of neuroprotective effect of resulting CM: 20%
[2]; DPCPX 100 nm added with CM to injured cortical neurons
  effect on neuroprotective effect of astrocyte-derived CM: did not modify the neuroprotective effect

## COc1cccc(-c2cc(=O)c3ccccc3o2)c1N [PD098,059, reference compound]
NGF
  effect of inhibitor on AIT-082-induced accumulation of NGF: partly inhibited
TGFβ2
  effect of inhibitor on AIT-082-induced accumulation of TGFβ2: partly inhibited

## C[C@@H]1C[C@@H]([C@H](O)CC2CC(=O)NC(=O)C2)C(=O)[C@@H](C)C1 [cycloheximide, reference compound]
NGF
  effect of inhibitor on AIT-082-induced accumulation of NGF: partly inhibited
NGF; cycloheximide 0.5 μg/ml, AIT-082 100 μ
  effect of cycloheximide on AIT-082-evoked release of NGF: abolished the stimulatory effect of AIT-082
S100β protein
  effect of cycloheximide on AIT-082-evoked accumulation of S100β protein: only slightly modified
TGFβ2
  effect of inhibitor on AIT-082-induced accumulation of TGFβ2: partly inhibited

## physostigmine, hemisulfate salt [reference compound]
Swiss Webster mice [3]
  Win-shift Memory Test, Correct responses: 6.5 Correct responses/10 trials
C57BL/6 mice [4]; inter-trial interval 180 sec
  Correct (Mean score ± S.E.): 65 ± 16
  No. above chance/Total #: 3/6
C57BL/6 mice [4]; inter-trial interval 210 sec
  Correct (Mean score ± S.E.): 53 ± 9
  No. above chance/Total #: 1/6
C57BL/6 mice [4]; physostigmine, untreated 120 seconds
  duration of the memory trace: 180 s
Swiss Webster mice [5]; Mild deficit, interval 60 sec
  subjects performing significantly above chance/total number of subjects: 5/6*
Swiss Webster mice [5]; Mild deficit, interval 90 sec
  subjects performing significantly above chance/total number of subjects: 3/6
Swiss Webster mice [5]; Mild deficit, interval 120 sec
  subjects performing significantly above chance/total number of subjects: 2/6
Swiss Webster mice [5]; Mild deficit, interval 150 sec
  subjects performing significantly above chance/total number of subjects: 2/6
Swiss Webster mice [5]; Mild deficit, interval 180 sec
  subjects performing significantly above chance/total number of subjects: 1/6
Swiss Webster mice [5]; Mild deficit, interval 210 sec
  subjects performing significantly above chance/total number of subjects: 0/6
Swiss Webster mice [5]; [7]
  subjects performing significantly above chance/total number of subjects: 1/6
Swiss Webster mice [5]; [8]
  subjects performing significantly above chance/total number of subjects: 0/6
Swiss Webster mice [5]; [9]
  subjects performing significantly above chance/total number of subjects: 0/6
C57BL/6 mice [6]; Mild deficit, interval 60 sec
  subjects performing significantly above chance/total number of subjects: 7/8*
C57BL/6 mice [6]; Mild deficit, interval 90 sec
  subjects performing significantly above chance/total number of subjects: 3/8
C57BL/6 mice [6]; Mild deficit, interval 120 sec
  subjects performing significantly above chance/total number of subjects: 2/8
C57BL/6 mice [6]; Mild deficit, interval 150 sec
  subjects performing significantly above chance/total number of subjects: 2/8
C57BL/6 mice [6]; Mild deficit, interval 180 sec
  subjects performing significantly above chance/total number of subjects: 2/8
C57BL/6 mice [6]; Mild deficit, interval 210 sec
  subjects performing significantly above chance/total number of subjects: 0/8
C57BL/6 mice [6]; Moderate deficit, interval 10 sec
  subjects performing significantly above chance/total number of subjects: 6/6
C57BL/6 mice [6]; [7]
  subjects performing significantly above chance/total number of subjects: 1/6
C57BL/6 mice [6]; [8]
  subjects performing significantly above chance/total number of subjects: 0/6
C57BL/6 mice [6]; [9]
  subjects performing significantly above chance/total number of subjects: 0/6
C57BL/6 mice [6]; moderate deficit group, PHY
  prolongation of memory: ineffective in the moderate group
